One data set concerns OvCar8 cells. Briefly: 2D monolayer viability assay (ApoLive-Glo). In kind it is cell-based. The note with it: Homo sapiens, OVCAR-8; OvCar8 2D monolayer, 48 h. On the procedure: The efficacy of metabolites can have a significant impact on the efficacy of the drug. […] The therapeutic effect of P8-D6 mono and P8-D6 N-oxide was investigated in vitro in human ovarian cancer 2D monolayers and 3D spheroids (Figures and ). 48 h of treatment of the ovarian cancer cell lines (OvCar8, A2780, Igrov-1) with P8-D6 mono and P8-D6 N-oxide was compared to P8-D6 and cisplatin (study preparation scheme supplied as Figure S5). Both metabolites decreased viability in ovarian cancer cells in a 2D monolayer (Figure A, supplied as Figure S3 A,C).
The human ovarian cancer cell lines OvCar8, Igrov-1, and A2780, purchased from ATCC, were maintained in RPMI1640 medium, including L-glutamine supplemented with 10% fetal bovine serum and 60 IU/mL penicillin–streptomycin. Cells were grown at 37 °C and 5% CO2 in a humidified incubator and subcultivated at a confluency of 70–80%. Cell line authenticity was checked by STR profiling as described previously, and mycoplasma contamination was routinely investigated using MycoAlert (Lonza).
For the measurements of viability and apoptosis, cells of approximately 8000/well were seeded in a Corning No. 3903 plate and treated with the corresponding drugs for 48 h. After treatment, apoptosis and cell viability assays were performed using an ApoLive-Glo Multiplex Assay Kit (Promega #G6410) according to the manufacturer’s instructions. Fluorescence and luminescence units were measured by using a microplate multimode reader (Spark, Tecan). Relative caspase activity was calculated as caspase activity divided by viability (normalized to control). […] All experiments were performed in biological triplicates. PBS was used as the negative control, and cisplatin and P8-D6 were used as the positive controls.

Data set [1] relates to NCI-60 human tumor cell lines. Briefly: NCI-60 DTP Human Tumor Cell Lines Screening. In kind it is cell-based. The note with it: for GI50: Homo sapiens, NCI-60 panel.
The nature of data set [2]: In vivo plasma pharmacokinetics after i.v. and p.o. administration of P8-D6. On the set-up: species or system Sprague–Dawley rats. The note with it: for AUC(0-t): read-out: AUC0–10 h (converted). On the procedure: The plasma concentration–time profiles and pharmacokinetic parameters of P8-D6 after p.o. and i.v. administration are presented in Figure B and Table .
Compartment models were used to calculate the pharmacokinetic parameters and plasma curves.
Since a pure drug solution of P8-D6 was administered in this study, liberation (release from the dosage form) could be neglected; therefore, first-order kinetics were assumed. […] Based on our in vivo results and assumptions, P8-D6 is first homogeneously distributed in the central compartment after application before being transferred to the peripheral compartment. Elimination occurs via the central compartment. The substance transport into, out of, and between the different compartments is characterized by the macro rate constants.
Starting with the i.v. administration, a two-compartment pharmacokinetic model was chosen that considers the biexponential decay of a fast initial first-order distribution and a slow terminal first-order elimination phase (supplied as Figure S4A,C). By this method, a fictitious initial P8-D6 plasma concentration c 0/i.v. of 4.43 μM at the time of injection was calculated (A (3.27 μM) + B (1.16 μM)). This fictitious plasma concentration corresponds to ∼1% (3.95 μmol in 8.8 mL of the theoretical plasma concentration and matches the plasma protein binding of P8-D6 of about 99% (Figure A). Based on the dose and c 0, a central V c of 0.891 L was calculated. Since the macro rate constant for distribution is considerably greater (37-fold) than the one for elimination, the elimination is the rate-determining step according to first-order kinetics.
To cope with the overlapping curves of absorption and elimination after p.o. administration, compartmental models are used (supplied as Figure S4B,D). However, since only two to three data points exist (depending on the definitive start time of the elimination) during the elimination and distribution phase (120–600 min), no differentiation between these two phases can be described by our data (as shown by the residual method in Figure S4B). Therefore, a one-compartment model according to the Bateman function with both first-order invasion and elimination rates was assumed for the p.o. administration of P8-D6 (supplied as Figure S4D). […] A fictitious initial plasma concentration, c 0/p.o. = 2.21 μM, was calculated.
Effects of the diet were reduced by fasting the rats overnight prior to P8-D6 application. Blood samples were taken at 5, 15, 30, 60, 120, 180, 300, 360, and 600 min after i.v. application or 30, 60, 90, 120, 240, and 600 min after p.o. application. Immediately afterward, the plasma was collected by centrifugation at 2000 g for 10 min. The rats were housed in metabolic cages to collect the urine in specially attached containers. Urine and feces samples were collected every 2 h. The rats were euthanized by CO2 inhalation. The harvested organs (kidney, spleen, lung, liver, and colon) were weighed and submerged in liquid nitrogen. All collected samples were stored at −80 °C until analysis.
50 μL of plasma was mixed with 100 μL of an ice-cold mixture of acetonitrile/methanol (2:1) and stirred in the vortex for 5 min. The suspension was centrifuged at 15000 g for 10 min, and 50 μL of the supernatant was injected into the HPLC (chapter Chromatographic Conditions). Calibration/control samples were prepared the same way with plasma samples collected from equal Sprague–Dawley rats from nonpharmacological studies. For calibration, the matrix was spiked with a defined concentration of the analyte. Final concentrations ranged from 0 μM to 5 μM. Triple determinations were performed and prepared on each respective day. LoD: 0.02 μM, LoQ: 0.05 μM (plasma).
For data analysis and statistics, Microsoft Excel 2019 and GraphPad Prism (version 10.2, GraphPad Software Inc., San Diego, California), commercially available software, were used. All data are expressed either as mean ± SEM or ± SD. […]

The mark [3] stands for this setting: male, Sprague-Dawley, rat, plasma, iv, 10 mg/kg, after i.v. administration of P8-D6 10 mg/kg BW, read-out: c max/i.v. of metabolite in plasma.
Where [4] appears, read: male, Sprague-Dawley, rat, plasma, po, 50 mg/kg, after p.o. administration of P8-D6 50 mg/kg BW, read-out: c max/p.o. of metabolite in plasma.

“And” between values parts separate entries of the source, which are not always exact repeats. Equal entries are not always repeated. Where two headings read alike, the source gives them in different places.

A word on the IC50: it is the concentration needed to halve the response being measured. Higher therefore signals lower potency. Usually GI50 stands for the concentration giving 50% growth inhibition. High values mean less potent growth inhibition, low ones more potent growth inhibition. One may read the bioavailability as the share of a dose that reaches the circulation, judged against a reference dose that is usually intravenous. `COc1cc(-c2cc3ccncc3c3nc(OCCN(C)C)c4cnccc4c23)cc(OC)c1OC` [P8-D6, 6-(N,N-dimethyl-2-aminoethoxy)-11-(3,4,5-trimethoxyphenyl)-pyrido[3,4-c][1,9]-phenanthroline] showed an IC50 in the data set with OvCar8 cells of 270 nM. For the same compound, in data set [1], halving of growth (GI50) required 49 nM. In data set [2] (i.v.), this compound came in with a CLi.v. of 6.34 mL/min. Besides, the “apparent volume of distribution” value stood at 57.69 L/m^2 in data set [2] (i.v.) and 82.92 L/m^2 in data set [2] (p.o.). Moreover, the “fictitious plasma concentration as share of theoretical plasma concentration” value in data set [2] (i.v.) is given as approximately 1%. Further, in data set [2] (i.v.), the “macro rate constant for distribution greater than for elimination” value is given as 37 fold. Besides, the c min in data set [2] (i.v. 10 mg/kg BW, plasma, 10 mg/kg) was 0.35 µM and 0.35 ± 0.05 µM; in data set [2] (p.o. 50 mg/kg BW, plasma, 50 mg/kg) it was 0.59 µM and 0.59 ± 0.06 µM. Moreover, the CL is reported as 10.66 L/(h m^2) in data set [2] (i.v., total body surface of 0.0357 m^2); 0.24 L/h in data set [2] (p.o.); 6.65 L/(h m^2) in data set [2] (p.o., total body surface of 0.0357 m^2). The “Macro rate constant ß” value in data set [2] (i.v., two-compartment model) was 0.002 min^–1. In data set [2] (i.v., two-compartment model), the “Macro rate constant α” value is on record as 0.073 min^–1. Further, the “coefficient A” value in data set [2] (i.v., two-compartment model) was determined as 3.27 µM. The “coefficient B” value in data set [2] (i.v., two-compartment model) amounted to 1.16 µM. In data set [2] (male, Sprague-Dawley, rat, plasma, iv, 10 mg/kg body weight), this compound showed a clearance of 6.33 mL/min. For the same compound, the half-life in data set [2] (male, Sprague-Dawley, rat, plasma, iv, 10 mg/kg body weight, i.v., read-out: Initial t 1/2) was 9.5 min; in data set [2] (male, Sprague-Dawley, rat, plasma, iv, 10 mg/kg body weight, i.v., read-out: Terminal t 1/2) it was 347 min; in data set [2] (male, Sprague-Dawley, rat, plasma, iv, 10 mg/kg body weight, i.v., read-out: plasma half-life t 1/2 (converted)), 348 min; in data set [2] (male, Sprague-Dawley, rat, plasma, po, 50 mg/kg body weight, p.o., read-out: Terminal t 1/2) it was 518 min; in data set [2] (male, Sprague-Dawley, rat, plasma, po, 50 mg/kg body weight, p.o., read-out: plasma half-life t 1/2 (converted)), 516 min. The Vd is 2.06 L and 9.36 L/kg in data set [2] (male, Sprague-Dawley, rat, plasma, iv, 10 mg/kg body weight, i.v., read-out: V d); 2.95 L and 13.4 L/kg in data set [2] (male, Sprague-Dawley, rat, plasma, iv, 10 mg/kg body weight, i.v., read-out: V ss). Moreover, the C0 in data set [2] (male, Sprague-Dawley, rat, plasma, iv, 10 mg/kg body weight, i.v., at the time of injection, two-compartment model, read-out: fictitious initial plasma concentration c 0/i.v.) came to 4.43 µM; in data set [2] (male, Sprague-Dawley, rat, plasma, po, 50 mg/kg body weight, p.o., one-compartment model, read-out: fictitious initial plasma concentration c 0/p.o.), 2.21 µM. Moreover, the Cmax in data set [2] (male, Sprague-Dawley, rat, plasma, iv, 10 mg/kg, i.v. 10 mg/kg BW, plasma, read-out: c max) is 3950 ± 420 nM; in data set [2] (male, Sprague-Dawley, rat, plasma, po, 50 mg/kg, p.o. 50 mg/kg BW, compartment model, read-out: c max (calculated)), 1250 nM; in data set [2] (male, Sprague-Dawley, rat, plasma, po, 50 mg/kg, p.o. 50 mg/kg BW, plasma, read-out: c max (measured)) it was 1160 nM. Moreover, the Tmax in data set [2] (male, Sprague-Dawley, rat, plasma, iv, 10 mg/kg, i.v. 10 mg/kg BW, read-out: t max) is 0 h; in data set [2] (male, Sprague-Dawley, rat, plasma, po, 50 mg/kg, p.o. 50 mg/kg BW, compartment model, read-out: t max (calculated) (converted)) it was 1.77 h; in data set [2] (male, Sprague-Dawley, rat, plasma, po, 50 mg/kg, p.o. 50 mg/kg BW, read-out: t max (measured) (converted)) it was 2 h. The AUC(0-t) in data set [2] (male, Sprague-Dawley, rat, plasma, iv, i.v. 10 mg/kg BW) is 7.49 µM·h; in data set [2] (male, Sprague-Dawley, rat, plasma, po, p.o. 50 mg/kg BW), 8.03 µM·h. The bioavailability was 100% in data set [2] (male, Sprague-Dawley, rat, plasma, iv, i.v. 10 mg/kg BW, read-out: Bioavailability) and 21.5% in data set [2] (male, Sprague-Dawley, rat, plasma, oral, 50 mg/kg body weight, p.o. 50 mg/kg BW vs i.v. 10 mg/kg BW, read-out: Oral bioavailability). The k el in data set [2] (male, Sprague-Dawley, rat, plasma, po, 50 mg/kg body weight, p.o., one-compartment model, read-out: Macro rate constant k e) was 2.17e-05 s⁻¹. Besides, the CLp.o. in data set [2] (p.o.) was determined as 3.96 mL/min. Moreover, the “Macro rate constant k a” value in data set [2] (p.o., one-compartment model) came to 0.031 min^–1. Besides, the V ss in data set [2] (total body surface of 0.0357 m^2) was determined as 82.69 L/m^2.

`CNCCOc1nc2c3cnccc3cc(-c3cc(OC)c(OC)c(OC)c3)c2c2ccncc12` [P8-D6 mono] gave an IC50 in the data set with OvCar8 cells of 310 nM. This compound also registered a GI50 in data set [1] of 37 nM. Besides, the Cmax was 114 nM in data set [2] (setting [3]) and 341 nM in data set [2] (setting [4]).

Regarding `COc1cc(-c2cc3ccncc3c3nc(OCC[N+](C)(C)[O-])c4cnccc4c23)cc(OC)c1OC` [P8-D6 N-oxide], inhibition in the data set with OvCar8 cells was half-maximal at 1980 nM (IC50). Moreover, the Cmax was found to be 228 nM in data set [2] (setting [3]) and 54 nM in data set [2] (setting [4]).

Regarding `COc1cc(-c2cc3ccncc3c3[nH]c(=O)c4cnccc4c23)cc(OC)c1OC` [P8-DO], in data set [1] (NCI 60 Cell Screening), the efficacy against cancer result was “ineffective against cancer”. Besides, the detection in plasma entry in data set [2] (after administration of P8-D6) is listed as “no P8-DO was detected”.

Values taken from PMC11997890, “In Vivo and In Vitro Pharmacokinetic Studies of a Dual Topoisomerase I/II Inhibitor” (ACS Pharmacology & Translational Science, 2025).
